Assay results from US20110059174A1, “PKCdelta REGULATES NEUROINFLAMMATORY EVENTS” (IOWA STATE UNIVERSITY RESEARCH FOUNDATION, INC., priority 2009, published 2011).

Legend:
[1] = tested on: BV-2 cells; experiment: TNFα release from BV-2 cells exposed to MMP-3 or MPP (Luminex); format: cell-based
Method: FIG. 6. MMP3-induces TNFα release in BV2 cells. […] After 24 h, the amount of TNFa released into the extracellular medium were determined in Luminex assays (see methods for details). n=6 ** p<0.01 compared to control.
(§1) Microglial cells are the primary immune cells in the CNS and are the major source of TNFα during neuroinflammation. Therefore, in this section, we examined the possible mechanisms that could regulate TNFα release during microglial activation. In particular, we examined whether PKCδ plays any role in the production and release of cytokines. For these studies, we used LPS as a microglial activator on BV2 cells, a widely used microglial cell line. BV-2 cells were exposed to LPS (1 μg/ml) in the presence or absence of PKCδ inhibitor rottlerin (1-3 μM). […] After 16 hr, cell-free supernatants were collected and TNFα levels were quantified using a multiplex bead-based luminex® assay system, as described in the methods.
Matrix metalloproteinases (MMPs) are a family of highly homologous protein-degrading zinc dependent endopeptidases. […] Therefore, we examined if MMP-3 could trigger TNFα release in BV-2 cells. […] Following 24 hr of MMP-3 treatment, supernatants were collected from extracellular medium and TNFα levels were determined using a Luminex immunoassay. […]

[2] = tested on: BV-2 microglia; experiment: LPS induced cytokine release in BV-2 microglia (Luminex immunoassay); format: cell-based; conditions: BV-2 cells
Method: FIG. 1. […] BV-2 microglia were exposed to 1 μg/ml LPS with and without rottlerin (1 to 3 μM) for 16 hrs and cell free supernatants were collected.
BV-2 microglia were transfected with 20 nM PKCδ siRNA and non-specific siRNA. 24 hr later transfected cells were treated with LPS (1 μg/ml) for 16 hrs and cell free supernatants were collected. Specificity of PKCδ suppression was assessed by western blotting.
as §1
In this experiment, we examined whether PKCδ-siRNA mediated knockdown of PKCδ, would suppress LPS-induced TNFα release in BV-2 cells.

[3] = dose range 1-3 μM; cited from earlier work
[4] = tested on: primary mouse microglia; experiment: LPS-induced cytokine release from primary mouse microglia (Luminex immunoassay); format: cell-based
Method: FIG. 8. Effect of PKCδ inhibitor rottlerin on LPS-induced TNFα release from primary mouse microglia. Primary microglia were treated with 100 ng/ml LPS for 24 hr in the presence of PKCδ inhibitor rottlerin (1 μM and 3 μM). TNFα levels in the culture medium were quantified using a multiplex bead-based luminex® immunoassay. *** p<0.001 compared to controls; […] ### p<0.001 compared to LPS treatment; N=5.
(§2) FIG. 10. PKCδ inhibitor rottlerin suppresses pro-inflammatory cytokine release in primary mouse microglia. Primary microglia were isolated by differential adherence from post-natal mixed-glial cultures and purity verified to be more than 95% by immunocytochemistry. Primary microglia were treated with LPS (100 ng/ml) for 24 hrs or pre-treated with the PKCδ inhibitor rottlerin (1 μM) and then treated with LPS. After treatment, supernatants were collected and proinflammatory cytokine levels were assayed using a multiplexed luminex assay.
To extend the results obtained with the BV2 microglial cell line to primary microglia, we performed some preliminary studies in primary microglia isolated from post-natal day 2 (PND-2) C57 black mice as described previously (Floden et al. 2006). Briefly, the brain tissues from PND-2 mice were gently triturated in ice-cold Ca^2+ and Mg^2+-free HBSS. The cells were spun down and cultured using DMEM/F-12 medium containing 10% heat-inactivated FBS, antibiotics and essential nutrients, as described previously (Liu et al. 2002). After 12-14 days, microglia were harvested by the differential shaking method (350 rpm for 4 hr) and grown on poly-D lysine coated 24-well plates. Primary microglia were then fixed with 4% paraformaldehyde and processed for immunohistochemical staining using CD 11b (microglial marker) monoclonal antibody followed by Alexa 568-conjugated secondary antibody (red). Nuclei were stained with TO-PRO-3 dye (blue). The cells were viewed using a Nikon TE2000 microscope, and images were captured by SPOT digital camera. […] Additionally, we have established a microglia isolation procedure using magnetic labeled CD11b (MACs CD11b+) microbeads followed by AutoMACS cell sorting, which also yielded over 95% pure microglia.
We extended this study to primary microglia. CD11b+ primary microglia cultures were prepared, as described in the previous section. The primary microglial cultures were treated with 100 ng/ml LPS for 24 hr in the presence of various doses of the PKCδ inhibitor rottlerin (1 μM and 3 μM). TNFα levels in the culture medium were quantified using a multiplex bead-based Luminex® immunoassay. […] 3 μM rottlerin reduced LPS-induced TNFα release by 75%. Consistent with the BV2 cell line data presented in the original proposal, the new results provide further evidence that PKCδ can regulate TNFα release in primary microglia during neuroinflammation.
as §2, with “microglia. Primary Microglia were isolated” for “microglia. Primary microglia were isolated”

[5] = tested on: nigral dopaminergic neurons; conditions: MPTP-induced animal model of Parkinson's disease; cited from earlier work
[6] = tested on: PKCδ; conditions: dose range 1-3 μM; cited from earlier work
[7] = tested on: PKCδ promoter; experiment: PKCδ promoter luciferase reporter assay in BV-2 cells; format: cell-based, mouse
From the text: FIG. 4. PKCδ promoter structure and site-directed mutagenesis of NFkB binding sites. (A) The ˜2 kb fragment of mouse PKCδ promoter region (relative to the transcription start site) was cloned using genomic DNA prepared from MN9D cells by the fusion PCR technique. PKCδ promoter fragment was cloned into promoter-less pGL3-basic vector with a luciferase reporter gene (Luc). (B). Site-specific mutagenesis of two NFkB sites present in the PKCδ promoter region.
FIG. 5. Mutation of NFkB sites block TNFa induced PKCδ promoter activity. Briefly, BV2 cells, were transfected with promoter constructs coding for native or NFkB mutated PKCδ promoter (see FIG. 10). 12 h after transfection, cells were exposed to 30 ng/ml TNF with or without etanercept (ETA). 24 h later, cell lsyates were subject to luciferase assay.
Since PKCδ upregulation was observed during neuroinflammation (FIG. 4A), we sought to determine mechanisms that regulate PKCδ expression via transcriptional activation. We first cloned the full-length mouse PKCδ promoter (2 Kb) from genomic DNA using the fusion PCR technique (FIG. 5A). The resulting PKCδ promoter 2 Kb fragment was cloned into the promoter-less pGL3-luciferase reporter vector. Binding of the transcription factors to the PKCδ promoter region would result in the expression of luciferase enzyme. […]

[8] = LPS and rottlerin treated samples, data not shown
[9] = LPS-stimulated primary mouse microglia

Compound: C[n+]1ccc(-c2ccccc2)cc1 [MPP, 1-methyl-4-phenylpyridinium]
- TNFα release from BV-2 cells ([1]; 24 hr exposure to 300 μM, data not shown): failed to release TNFα

Compound: CC(=O)c1c(O)c(C)c(O)c(Cc2c(O)c3c(c(C(=O)/C=C/c4ccccc4)c2O)OC(C)(C)C=C3)c1O [rottlerin, 3-[(8-Cinnamoyl-5,7-dihydroxy-2,2-dimethyl-2H-1-benzopyran-6-yl)methyl]-2′,4′,6′-trihydroxy-5-methylaceophenone]
- LPS-induced TNFα release ([2]; LPS 1 μg/ml, rottlerin 1-3 μM, 16 hr): dose-dependently blocked
- LPS-induced IL-6 levels [2, 8]: no effect
- LPS-induced IL-12 levels [2, 8]: no effect
- toxicity [3]: does not cause any toxicity
- release of IL-6 [4, 9]: decrease
- release of IL-12 [4, 9]: decrease
- reduction of LPS-induced TNFα release ([4]; primary microglia, 100 ng/ml LPS 24 hr, 3 μM rottlerin): 75%
- LPS-induced TNFα levels ([4]; primary microglia, 100 ng/ml LPS 24 hr, rottlerin 1 μM and 3 μM, dose dependent): significantly suppressed
- pro-inflammatory cytokine release ([4]; primary microglia, pre-treated with rottlerin 1 μM, LPS 100 ng/ml 24 hrs): suppresses
- nigral dopaminergic neuronal death [5]: protects
- PKCδ inhibition [6]: effectively inhibits PKCδ

Compound: Etanercept
- TNFα-induced PKCδ promoter activity ([7]; BV-2 cells, 30 ng/ml TNF with etanercept, 24 h, luciferase): blocked

Compound: ProMMP3: inactive proMMP-3
- levels of TNFα compared to control ([1]; BV-2 cells, 400 ng/ml, 24 hr): did not induce any significant levels

Compound: TNFα
- PKCδ promoter activity ([7]; BV-2 cells expressing 148 bp minimal PKCδ promoter construct, 30 ng/ml TNF): significant increase
